Results on 32 compounds are retold here after US8507493B2 (AbbVie Inc., priority 2009, dated 2013).

Bounds are passed on as bounds.

This experiment deals with T1, human 11β-HSD1 (Homo sapiens, UniProt P28845).
T1 construct: truncated (24-287aa) human 11β-HSD1 enzyme; made in house; host or cells: E. coli (lysate, not purified)
T1 sequence (P28845 24-287): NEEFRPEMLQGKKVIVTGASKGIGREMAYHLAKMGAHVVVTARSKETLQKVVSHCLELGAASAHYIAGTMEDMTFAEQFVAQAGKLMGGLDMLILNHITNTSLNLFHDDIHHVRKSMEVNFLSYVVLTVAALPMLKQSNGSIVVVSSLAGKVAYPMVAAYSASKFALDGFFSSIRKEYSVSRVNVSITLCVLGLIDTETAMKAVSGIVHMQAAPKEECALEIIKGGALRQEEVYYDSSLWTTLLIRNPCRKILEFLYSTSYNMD
Put plainly: Human 11β-HSD1 enzymatic SPA assay. Format: biochemical. Particulars: truncated (24-287aa) human 11β-HSD1, apparent Ki from IC50 by Cheng-Prusoff. The protocol:
The ability of test compounds to inhibit human 11β-HSD1 enzymatic activity in vitro was evaluated in a Scintillation Proximity Assay (SPA). Tritiated-cortisone substrate, NADPH cofactor and titrated compound were incubated with truncated (24-287aa) human 11β-HSD1 enzyme at room temperature to allow the conversion to cortisol to occur. The reaction was stopped by adding a non-specific 11β-HSD inhibitor, glycyrrhetinic acid. The tritiated cortisol was captured by a mixture of an anti-cortisol monoclonal antibody and SPA beads coated with anti-mouse antibodies. The reaction plate was shaken at room temperature and the radiolabel bound to SPA beads was then measured on a scintillation counter. The 11β-HSD1 assay was carried out in 96-well microtiter plates in a total volume of […]. To start the assay, 188 μL of master mix which contained 75 nM ^3H-cortisone, 100 nM cortisone and 181 μM NADPH was added to the wells. In order to drive the reaction in the 11β-reductase direction, 1 mM glucose-6-phosphate (G-6-P) and 1 U/mL G-6-P dehydrogenase were also added as a NADPH generating system. Solid compound was dissolved in dimethyl sulfoxide to make a 10 mM stock followed by a subsequent 10-fold serial dilution with dimethyl sulfoxide. Each compound solution in dimethyl sulfoxide was 10-fold diluted in Tris/EDTA buffer (pH 7.4). 22 μL of titrated compound were then added in duplicate to the substrate. Reactions were initiated by the addition of 10 μL of 0.1 mg/mL E. coli lysates overexpressing 11β-HSD1 enzyme. After shaking and incubating plates for 30 minutes at room temperature, reactions were stopped by adding 10 μL of 1 mM glycyrrhetinic acid. The product, tritiated cortisol, was captured by adding 10 μL of 1 μM monoclonal mouse anti-cortisol antibodies and 50 μL of SPA beads coated with anti-mouse antibodies. After shaking for 30 minutes, plates were read in a Microbeta scintillation counter. Percent inhibition was calculated based on the background and the maximal signal. Wells that contained substrate without compound or enzyme were used as the background, while the wells that contained substrate and enzyme without any compound were considered as maximal signal. Percent of inhibition of each compound was calculated relative to the maximal signal and IC50 curves were generated. Assuming competitive inhibition the Cheng-Prusoff equation was used to calculate apparent Ki values from the IC50 values. This assay was applied to 11β-HSD2 as well, whereby 6 nM tritiated cortisol and 250 uM NAD^+ were used as substrate and cofactor, respectively.
Consider `CC1(C)/C(=N/C#N)N([C@@H]2[C@@H]3C[C@@H]4C[C@H]2C[C@@](S(C)(=O)=O)(C4)C3)CC1COc1ccc(C#N)cn1` (some centres unmarked) [Example 33, (2Z)-4-{[(5-Cyanopyridin-2-yl)oxy]methyl}-3,3-dimethyl-1-[(E)-5-(methylsulfonyl)-2-adamantyl]pyrrolidin-2-ylidenecyanamide], for which the Ki lay in the range of 100 to 1000 nM. The value for `Cc1c(Cl)cccc1S(=O)(=O)N1CCC[C@H](C(=NC#N)NC2CCCCC2)C1` [Example 35, (3S)-1-[(3-Chloro-2-methylphenyl)sulfonyl]-N′-cyano-N-cyclohexylpiperidine-3-carboximidamide] was above 1000 nM; that for `CC(C)(Oc1ccc(Cl)cc1)/C(=N\C#N)N[C@@H]1[C@@H]2C[C@@H]3C[C@H]1C[C@@](C(=O)O)(C3)C2` [Example 36, (E)-4-{[(1E)-2-(4-Chlorophenoxy)-N-cyano-2-methylpropanimidoyl]amino}adamantane-1-carboxylic acid] was 100 to 1000 nM; that for `CC(C)(Oc1ccc(Cl)cc1)/C(=N\C#N)N[C@@H]1[C@@H]2C[C@@H]3C[C@H]1C[C@@](C#N)(C3)C2` [Example 37, (1E)-2-(4-Chlorophenoxy)-N′-cyano-N-[(E)-5-cyano-2-adamantyl]-2-methylpropanimidamide] was 10 to 100 nM.

`CC(C)(Oc1ccc(Cl)cc1)/C(=N\C#N)NC12CC3CC(CC1C3)C2` [Example 38, (1E)-2-(4-Chlorophenoxy)-N′-cyano-N-hexahydro-2,5-methanopentalen-3a(1H)-yl-2-methylpropanimidamide]: the Ki was in the range of 10 to 100 nM. For the compound `CC(C)(Oc1ccc(Cl)cc1)C(=NC#N)NC1C2CC3CC1CN(C3)C2` (centres unmarked) [Example 39, (1E)-N-[(4s)-1-Azatricyclo[3.3.1.1^3,7]dec-4-yl]-2-(4-chlorophenoxy)-N′-cyano-2-methylpropanimidamide], the Ki is above 1000 nM. The result for `CC(C)(Oc1ccc(Cl)cc1)C(=NC#N)NC1CN2CCC1CC2` (centres unmarked) [Example 40, N-1-Azabicyclo[2.2.2]oct-3-yl-2-(4-chlorophenoxy)-N′-cyano-2-methylpropanimidamide] reads above 1000 nM; that for `CC(C)(Oc1ccc(Cl)cc1)C(=NC#N)NC1CCCCCCC1` [Example 41, 2-(4-Chlorophenoxy)-N′-cyano-N-cyclooctyl-2-methylpropanimidamide], 10 to 100 nM. The result for `CC(C)(Oc1ccc(Cl)cc1)C(=NC#N)NC1CC2CCC1C2` (stereo not drawn) [Example 42, N-[exo-Bicyclo[2.2.1]hept-2-yl]-2-(4-chlorophenoxy)-N′-cyano-2-methylpropanimidamide] reads 100 to 1000 nM; that for `CC(C)(Oc1ccc(Cl)cc1)C(=NC#N)NC12CC3CC(CC(C3)C1)C2` [Example 43], 10 to 100 nM; that for `CC(C)(Oc1ccc(F)cc1F)C(=NC#N)NC1C2CC3CC1CC(S(C)(=O)=O)(C3)C2` (centres unmarked) [Example 45, (1E)-N′-cyano-2-(2,4-difluorophenoxy)-2-methyl-N-[(E)-5-(methylsulfonyl)adamantan-2-yl]propanimidamide], at most 10 nM.

As to `CC(C)(Oc1ccc(Cl)cc1)C(=NC#N)NC12CCC(C(=O)O)(CC1)CC2` [Example 46, 4-{[2-(4-chlorophenoxy)-N-cyano-2-methylpropanimidoyl]amino}bicyclo[2.2.2]octane-1-carboxylic acid], the Ki is above 1000 nM.

Take `CC(C)(Oc1ccc(Cl)cc1)C(=NC#N)NC12CCC(C(N)=O)(CC1)CC2` [Example 47, 4-{[2-(4-chlorophenoxy)-N-cyano-2-methylpropanimidoyl]amino}bicyclo[2.2.2]octane-1-carboxamide]: the Ki fell in the range of 10 to 100 nM. The result for `COC(=O)C12CC3CC(C1)C(NC(=NC#N)C(C)(C)N1CC4CC(c5ccc(Cl)cc5)C4C1)C(C3)C2` (stereo not drawn) [Example 48, methyl(E)-4-({(1E)-2-[(1R*,5S*,6R*)-6-(4-chlorophenyl)-3-azabicyclo[3.2.0]hept-3-yl]-N-cyano-2-methylpropanimidoyl}amino)adamantane-1-carboxylate] reads 100 to 1000 nM; that for `CC(C)(Oc1ccccc1)C(=NC#N)NC1C2CC3CC1CC(O)(C3)C2` (centres unmarked) [Example 49, (1E)-N′-cyano-N-[(E)-5-hydroxyadamantan-2-yl]-2-methyl-2-phenoxypropanimidamide], 10 to 100 nM; that for `CC(C)(Oc1ccccc1)/C(=N\C#N)N[C@@H]1[C@@H]2C[C@@H]3C[C@H]1C[C@@](C(N)=O)(C3)C2` [Example 50, (E)-4-{[(1E)-N-cyano-2-methyl-2-phenoxypropanimidoyl]amino}adamantane-1-carboxamide], at most 10 nM.

As to `CC(C)(Oc1ccc(F)cc1F)C(=NC#N)NC1C2CC3CC1CC(O)(C3)C2` (centres unmarked) [Example 51, (1E)-N′-cyano-2-(2,4-difluorophenoxy)-N-[(E)-5-hydroxyadamantan-2-yl]-2-methylpropanimidamide], the Ki is at most 10 nM. The value for `CC(C)(Oc1ccc(F)cc1F)/C(=N\C#N)N[C@@H]1[C@@H]2C[C@@H]3C[C@H]1C[C@@](C#N)(C3)C2` [Example 52, (1E)-N′-cyano-N-[(E)-5-cyanoadamantan-2-yl]-2-(2,4-difluorophenoxy)-2-methylpropanimidamide] was 10 to 100 nM.

With `CC(C)(Oc1ccc(F)cc1F)C(=NC#N)NC1CC2CCC1C2` (stereo not drawn) [Example 56, N-[(exo)-bicyclo[2.2.1]hept-2-yl]-N-cyano-2-(2,4-difluorophenoxy)-2-methylpropanimidamide], the Ki was at most 10 nM. The value for `CC(C)(Oc1ccc(F)cc1F)/C(=N\C#N)N[C@@H]1[C@@H]2C[C@@H]3C[C@H]1C[C@@](S(N)(=O)=O)(C3)C2` [Example 57] was 10 to 100 nM; that for `CC(C)(Oc1ccc(Cl)cn1)/C(=N\C#N)N[C@@H]1[C@@H]2C[C@@H]3C[C@H]1C[C@@](O)(C3)C2` [Example 58, (1E)-2-[(5-chloropyridin-2-yl)oxy]-N′-cyano-N-[(E)-5-hydroxyadamantan-2-yl]-2-methylpropanimidamide] was 100 to 1000 nM. The value for `CC(C)(Oc1ccc(Cl)cn1)C(=NC#N)NC1C2CC3CC1CC(C#N)(C3)C2` (centres unmarked) [Example 59, (1E)-2-[(5-chloropyridin-2-yl)oxy]-N′-cyano-N-[(E)-5-cyanoadamantan-2-yl]-2-methylpropanimidamide] was 100 to 1000 nM; that for `CC(C)(Oc1ccc(Cl)cc1F)C(=NC#N)NC12CC3CC(CC(C3)C1)C2` [Example 60] was 10 to 100 nM; that for `CC(C)(Oc1ccc(Cl)cc1F)C(=NC#N)NC1CCCCCCC1` [Example 61, 2-(4-chloro-2-fluorophenoxy)-N′-cyano-N-cyclooctyl-2-methylpropanimidamide] was 100 to 1000 nM. The value for `CC(C)(Oc1ccc(Cl)cc1F)C(=NC#N)NC1C2CC3CC(C2)CC1C3` (centres unmarked) [Example 62, (1E)-N-[(E)-adamantan-2-yl]-2-(4-chloro-2-fluorophenoxy)-N-cyano-2-methylpropanimidamide] was 10 to 100 nM; that for `COC(=O)C12CC3CC(C1)C(N/C(=N/C#N)C(C)(C)Oc1ccc(Cl)cc1F)C(C3)C2` (centres unmarked) [Example 63, methyl(E)-4-{[(1E)-2-(4-chloro-2-fluorophenoxy)-N-cyano-2-methylpropanimidoyl]amino}adamantane-1-carboxylate] was 10 to 100 nM; that for `CC(C)(Oc1ccccc1)/C(=N\C#N)NC1C2CC3CC1CC(S(C)(=O)=O)(C3)C2` (centres unmarked) [Example 64, (1E)-N-cyano-2-methyl-N-[(E)-5-(methylsulfonyl)adamantan-2-yl]-2-phenoxypropanimidamide] was at most 10 nM. Take `CC(C)(Oc1ccc(F)cc1F)C(=NC#N)NC1CCCCCCC1` [Example 65, N′-cyano-N-cyclooctyl-2-(2,4-difluorophenoxy)-2-methylpropanimidamide]: the Ki is 100 to 1000 nM.

`CC(C)(Oc1ccc(Cl)cc1F)C(=NC#N)NC1CC2CCC1C2` (stereo not drawn) [Example 66, N-(exo-bicyclo[2.2.1]hept-2-yl)-2-(4-chloro-2-fluorophenoxy)-N-cyano-2-methylpropanimidamide]: the Ki lay within 100 to 1000 nM. In the case of `CC(C)(Oc1ccc(Cl)cn1)C(=NC#N)NC1C2CC3CC1CC(S(C)(=O)=O)(C3)C2` (centres unmarked) [Example 67, (1E)-2-[(5-chloropyridin-2-yl)oxy]-N-cyano-2-methyl-N-[(E)-5-(methylsulfonyl)adamantan-2-yl]propanimidamide], the Ki was in the range of 100 to 1000 nM. The result for `CC(C)(Oc1ccc(Cl)cn1)C(=NC#N)NC1C2CC3CC1CC(S(N)(=O)=O)(C3)C2` (centres unmarked) [Example 68, (1E)-2-[(5-chloropyridin-2-yl)oxy]-N-cyano-2-methyl-N-[(E)-5-sulfamoyladamantan-2-yl]propanimidamide] reads above 1000 nM; that for `CC(C)(Oc1ccc(F)cc1F)C(=NC#N)NC12CC3CC(CC1C3)C2` [Example 69], 10 to 100 nM.
